Measured values as given in US20140243401A1, “METHODS OF SCREENING COMPOUNDS THAT ARE CYTOTOXIC TO TUMOR CELLS AND METHODS OF TREATING TUMOR CELLS USING SUCH COMPOUND” (The Johns Hopkins University, priority 2010, published 2014).
Values after ≈ are worked out from the molar mass of the structure shown. Values joined by “and” are separate entries in the source; they are usually repeats but may differ in a detail not shown here. Equal entries are not always repeated.

How the values were obtained:
[1] = test system: AMP-activated protein kinase (AMPK); assay: AMPK activation (pAMPK Western blot) in MCF 7 cells at varying glucose and oxygen; type: cell-based, human; settings: MCF 7, 1 mM or 5 mM glucose, 1% or 21% oxygen, FIGS. 12, 13
Method: FIG. 12 A illustrates the effects of varying oxygen and glucose concentrations on AMPK activation over time in the presence of C31 in MCF 7 cells.
Determination of AMP-activated protein kinase status was carried out using the procedure described above. Cells were grown in 6-well plates at 5×10^4 per well and incubated overnight. Cells were cultured in 1 mM or 5 mM glucose at either 1% or 21% (ambient) oxygen levels. These conditions were employed for treatment with vehicle, C31, or Riv7d. Following drug treatment, the cells were harvested in Laemmli buffer and boiled for 5 minutes. Proteins were separated on a 4-15% SDS-PAGE gradient gel and transferred to a nitrocellulose membrane. Antibodies to pAMPK and AMPK were obtained from Cell Signaling.

[2] = test system: SKOV3 human ovarian cancer xenograft; assay: tumor xenograft size, SKOV3; type: in vivo, Athymic Nude mice
Method: (§1) Xenograft studies were performed using various mmFAS inhibitors disclosed herein. Human cancer xenograft studies are known in the art. (See Pizer et al., Cancer Res. 56:1189-1193, 1996; Pizer et al., Cancer Res. 60: 213-218, 2000; Testa et al., Oncogene 24: 7455-7464, 2005).
(§2) In particular, C31 mouse efficacy studies were conducted in order to evaluate anti-neoplastic activity of C31 in vivo. Athymic Nude mice were implanted with HCT116 human colon, SKOV3 human ovarian or OVCAR3 human ovarian cancer cell lines and were treated when the grown tumor xenografts reached at least 150 to 200 mm^3.^1 ^1 Compounds were solubilized in TEP (80% polyethylene glycol (PEG) 400, 10% ethanol, 10% tween-80) in a volume of 50 μL.

[3] = test system: Human colon cancer cell line; assay: XTT cytotoxicity assay, human colon cancer cell line; type: cell-based; settings: 1 human colon cancer cell line, read-out: LC50 (the source's name)
Method: (§3) Cytotoxicity can be easily measured using XTT assays, which provide an indication of mitochondrial activity. The XTT assay is a non-radioactive alternative for the [^51Cr] release cytotoxicity assay. XTT is a tetrazolium salt that is reduced to a formazan dye only by metabolically active, viable cells. The reduction of XTT is measured spectrophotometrically as OD490-OD650. Thus, cells that are actively metabolizing will form reaction product when subjected to XTT measurement.
(§4) For this experiment, cells were cultured under standard culture conditions. MCF7 human breast cancer cells were cultured in DMEM containing 5 mM glucose medium with 10% fetal calf serum, 0.01 mg/ml insulin and 1% penicillin/streptomycin. To measure the cytotoxicity of specific compounds against cancer cells, 9×10^3 MCF7 cells were plated per well in 96-well plates. Following overnight culture, the compounds, dissolved in DMSO, were added to the wells in 1 μl volume at specified concentrations. Vehicle controls were run for each experiment. Each condition was run in triplicate. […] Plates were read at OD490 on a PerkinElmer Victor 1420. […]
(§5) Using the XTT assay, LC50 values for C31 were determined for numerous human cancer cell lines and human hepatocytes, as shown in the following table: […]

human cancer cell lines = assay: XTT cytotoxicity assay, all human cancer cell lines tested; type: cell-based
Method: as §3
For this experiment, cells were cultured under standard culture conditions. MCF7 human breast cancer cells were cultured in DMEM containing 5 mM glucose medium with 10% fetal calf serum, 0.01 mg/ml insulin and 1% penicillin/streptomycin. To measure the cytotoxicity of specific compounds against cancer cells, 9×10^3 MCF7 cells were plated per well in 96-well plates. Following overnight culture, the compounds, dissolved in DMSO, were added to the wells in 1 μl volume at specified concentrations. Vehicle controls were run for each experiment. Each condition was run in triplicate. After 24 to 72 h of incubation, cells were incubated for 4 hours with the XTT reagent as per manufacturer's instructions (Cell Proliferation Kit II (XTT) Roche Diagnostics, New Jersey). Plates were read at OD490 on a PerkinElmer Victor 1420. Three wells containing the XTT reagent without cells served as the plate blank. […]

MCF7 cells = assay: 14C-acetate incorporation into lipids in MCF7 cells; type: cell-based, human; settings: for IC50: Homo sapiens, MCF7 cells
Method: (§6) MCF7 human breast cancer cells (a cell line which overexpresses FAS) were cultured in DMEM containing 5 mM glucose medium with 10% fetal calf serum, 0.01 mg/ml insulin and 1% penicillin/streptomycin. For measurement of fatty acid synthesis cells were cultured in 24-well plates at 5×10^4 per well and incubated overnight. Fatty acid synthesis was assayed by a 2 h pulse of [U^14C]acetate, 1 μCi/well, followed by Folch extraction and scintillation counting. Test compounds were added with the addition of drugs as described. Controls were treated with DMSO alone.
as §6, with “cells” for “cells (a cell line which overexpresses FAS)”, “containing 1 mM or” for “containing”, “glucose in the” for “glucose”, “penicillin/streptomycin. The cells were grown in two oxygen conditions, normoxia (21% 02) or hypoxia (1% 02).” for “penicillin/streptomycin.”, “counting” for “counting. Test compounds were added”

[4] = test system: OVCAR3 human ovarian cancer xenograft; assay: tumor xenograft size, OVCAR3; type: in vivo, Athymic Nude mice; settings: Study 1129063207, OVCAR-3, oral b.i.d. 11 days, 50 mg/kg
Method: as §1, §2

[5] = test system: Human (non-small cell) lung cancer cell lines; assay: XTT cytotoxicity assay, human non-small cell lung cancer cell lines; type: cell-based; settings: 4 human non-small cell lung cancer cell lines, read-out: LC50 (the source's name)
Method: as §3, §4, §5

[6] = test system: HCT116 human colon cancer xenograft; assay: tumor xenograft size, HCT116; type: in vivo, Athymic Nude mice; settings: 50 mg/kg
Method: as §1, §2

## CCCCCCCCC1(C)SC(=O)C=C1OCC(=O)Nc1ccc(Cl)cc1 (stereo not shown) [Compound C31]
[1]
  AMPK phosphorylation (quantitative Western blots): increased phosphorylation of AMPK
[2]; Study 11007, SKOV-3, oral b.i.d. 11 days, 50 mg/kg
  Average Tumor Size Endpoint (% Change): −78 % Change
[2]; Study 52307, SKOV-3, oral b.i.d. 15 days, 50 mg/kg
  Average Tumor Size Endpoint (% Change): −75 % Change
[2]; Study 121306, SKOV-3, IP b.i.d. 12 days, 10 mg/kg
  Average Tumor Size Endpoint (% Change): +179 % Change
[2]; Study 121306, SKOV-3, IP b.i.d. 12 days, 50 mg/kg
  Average Tumor Size Endpoint (% Change): −78 % Change
[2]; Study 121306, SKOV-3, IP b.i.d. 12 days, 100 mg/kg
  Average Tumor Size Endpoint (% Change): −78 % Change
[2]; Study 3150772607, SKOV-3, IP b.i.d. 10 days, 25 mg/kg
  Average Tumor Size Endpoint (% Change): −74 % Change
[2]; Study 3150772607, SKOV-3, IP b.i.d. 10 days, 50 mg/kg
  Average Tumor Size Endpoint (% Change): −87 % Change
[2]; Study 3150772607, SKOV-3, IP b.i.d. 10 days, 150 mg/kg
  Average Tumor Size Endpoint (% Change): −83 % Change
[3]
  CC50: 4 µg/mL (≈ 9.76 µM)
Human cancer cell lines; Homo sapiens, XTT, range over all cancer cell lines, read-out: LC50, human cancer cell lines
  CC50: 3.3 µg/mL to 16.7 µg/mL and 8.25 µM to 41.8 µM
Human cancer cell lines; hepatocyte LC50 vs cancer cell line LC50
  potential therapeutic index in vitro: 34 to 170 fold
MCF7 cells; first experiment, FIG. 1
  IC50: 17 µg/mL
MCF7 cells; second experiment
  IC50: 13.6 µM
MCF7 cells; MCF7, 1 mM or 5 mM glucose, 21% or 1% O2, FIG. 14
  inhibition of FAS activity (14C-acetate incorporation): increasingly effective at inhibiting FAS activity
[4]
  Average Tumor Size Endpoint (% Change): −59 % Change
[5]
  CC50: 4 to 8 µg/mL (≈ 9.76 to 19.5 µM)
[6]; Study 72406, HCT-116, IP b.i.d. 8 days
  Average Tumor Size Endpoint (% Change): −59 % Change
[6]; Study 101707, HCT-116, oral b.i.d. 16 days
  Average Tumor Size Endpoint (% Change): +256 % Change
